Laboratory results from patent US9884839B2, “Inhibitors of 17Beta-hydroxysteroid dehydrogenases type 1 and type 2” (ElexoPharm GmbH, priority 2014, dated 2018).
Like-named read-outs stand apart in the source and are kept apart here.

Columns and labels:
rat 17β-HSD1 = target: T1, rat 17β-HSD1 (Rattus norvegicus, UniProt P51657); test: Inhibition of rat 17β-HSD1 (recombinant, HEK293 lysate); format: biochemical; conditions: Cmpd conc. 250 nM; read-out: % Inhibition r17β-HSD1
T1 construct: made in house; host or cells: HEK293 cells, transient transfection; 1,000 g supernatant of the cell lysate
T1 sequence (P51657 1-344): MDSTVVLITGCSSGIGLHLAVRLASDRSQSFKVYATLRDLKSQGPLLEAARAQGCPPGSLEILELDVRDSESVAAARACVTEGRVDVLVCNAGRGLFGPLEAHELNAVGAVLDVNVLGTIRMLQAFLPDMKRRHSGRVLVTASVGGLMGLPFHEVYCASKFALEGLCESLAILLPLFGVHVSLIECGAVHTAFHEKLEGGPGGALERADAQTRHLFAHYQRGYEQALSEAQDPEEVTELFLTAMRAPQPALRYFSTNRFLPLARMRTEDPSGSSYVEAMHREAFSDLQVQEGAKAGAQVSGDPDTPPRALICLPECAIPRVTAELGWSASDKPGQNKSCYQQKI

mouse 17β-HSD1 = target: T2, mouse 17β-HSD1 (Mus musculus, UniProt P51656); test: Inhibition of mouse 17β-HSD1 (recombinant, HEK293 lysate); format: biochemical; conditions: for IC50: recombinant mouse enzyme, E1 10 nM, NADPH, read-out: IC50 m17β-HSD1
T2 construct: made in house; host or cells: HEK293 cells, transient transfection; 1,000 g supernatant of the cell lysate
T2 sequence (P51656 1-344): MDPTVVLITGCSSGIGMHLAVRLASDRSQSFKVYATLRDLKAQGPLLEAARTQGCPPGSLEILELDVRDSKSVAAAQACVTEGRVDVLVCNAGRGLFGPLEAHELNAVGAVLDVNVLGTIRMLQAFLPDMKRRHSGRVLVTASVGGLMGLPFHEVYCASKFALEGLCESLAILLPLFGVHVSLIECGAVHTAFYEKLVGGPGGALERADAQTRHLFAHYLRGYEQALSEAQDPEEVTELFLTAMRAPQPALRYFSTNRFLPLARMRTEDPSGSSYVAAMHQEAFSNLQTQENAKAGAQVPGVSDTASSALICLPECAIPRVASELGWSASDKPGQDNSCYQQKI

mouse 17β-HSD2 = target: T3, mouse 17β-HSD2 (Mus musculus, UniProt P51658); test: Inhibition of mouse 17β-HSD2 (liver microsomal fraction); format: biochemical; conditions: for inhibition at 1 µM: read-out: Inhibition @ 1 μM m17β-HSD2; for IC50: read-out: IC50 m17β-HSD2; for inhibition at 0.05 µM: read-out: % inhibition m17β-HSD2 @ 50 nM
T3 construct: The pellet fractions containing the microsomal 17β-HSD2 were used for the determination of E1 formation; from tissue; host or cells: mouse liver, microsomal fraction
T3 sequence (P51658 1-381): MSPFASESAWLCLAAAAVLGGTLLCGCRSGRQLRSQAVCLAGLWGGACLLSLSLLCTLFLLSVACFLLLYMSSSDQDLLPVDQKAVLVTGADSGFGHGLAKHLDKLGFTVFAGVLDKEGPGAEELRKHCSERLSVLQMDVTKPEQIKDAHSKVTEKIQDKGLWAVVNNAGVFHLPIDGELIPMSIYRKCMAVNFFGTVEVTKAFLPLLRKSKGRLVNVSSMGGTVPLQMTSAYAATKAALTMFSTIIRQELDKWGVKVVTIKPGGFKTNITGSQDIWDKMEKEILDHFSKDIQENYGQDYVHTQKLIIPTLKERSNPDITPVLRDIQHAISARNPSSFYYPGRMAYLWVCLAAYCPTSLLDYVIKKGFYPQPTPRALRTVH

in vitro = conditions: human, pooled human liver S9 fraction
human 17β-HSD2 = target: T4, human 17β-HSD2 (Homo sapiens, UniProt P37059); test: Inhibition of human 17β-HSD2 (conversion of [3H]-E2 to E1); format: biochemical; conditions: for IC50: read-out: IC50 [nM] h17β-HSD2; for inhibition at 0.01 µM: read-out: % inhibition h17β-HSD2 @ 10 nM
T4 construct: 17β-HSD2 was obtained from the microsomal fraction; from tissue; host or cells: human placenta, microsomal fraction
T4 sequence (P37059 1-387): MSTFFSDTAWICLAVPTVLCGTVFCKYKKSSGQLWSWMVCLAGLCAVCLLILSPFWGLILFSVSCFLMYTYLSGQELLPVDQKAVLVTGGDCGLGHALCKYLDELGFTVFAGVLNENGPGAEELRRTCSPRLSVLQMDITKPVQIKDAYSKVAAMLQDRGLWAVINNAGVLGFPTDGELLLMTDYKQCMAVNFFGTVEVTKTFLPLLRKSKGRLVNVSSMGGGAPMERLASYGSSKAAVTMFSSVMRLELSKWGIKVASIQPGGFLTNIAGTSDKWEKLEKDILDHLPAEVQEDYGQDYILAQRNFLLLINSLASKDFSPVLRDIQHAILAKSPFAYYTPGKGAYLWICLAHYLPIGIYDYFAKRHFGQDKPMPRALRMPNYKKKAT

human 17β-HSD1 = target: T5, human 17β-HSD1 (Homo sapiens, UniProt P14061); test: Inhibition of human 17β-HSD1 (conversion of [3H]-E1 to E2, HPLC radioflow detection); format: biochemical; conditions: for IC50: human placental cytosolic enzyme, E1 500 nM, NADH, Tables 1, 4-11, read-out: IC50 [nM] h17β-HSD1; for inhibition at 0.01 µM: read-out: % inhibition h17β-HSD1 @ 10 nM
T5 construct: For the partial purification of 17β-HSD1, the cytosolic fraction was precipitated with ammonium sulfate; from tissue; host or cells: human placenta, cytosolic fraction, ammonium sulfate precipitate
T5 sequence (P14061 1-328): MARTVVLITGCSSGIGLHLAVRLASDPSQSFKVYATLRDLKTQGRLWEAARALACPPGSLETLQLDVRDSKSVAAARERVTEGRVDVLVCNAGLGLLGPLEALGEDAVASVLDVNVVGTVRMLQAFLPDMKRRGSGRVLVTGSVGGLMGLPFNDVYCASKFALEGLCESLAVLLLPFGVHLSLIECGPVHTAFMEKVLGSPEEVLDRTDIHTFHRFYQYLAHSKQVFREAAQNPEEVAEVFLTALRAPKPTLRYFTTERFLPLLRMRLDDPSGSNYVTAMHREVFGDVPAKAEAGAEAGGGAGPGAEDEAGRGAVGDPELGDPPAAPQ

[1] = human liver S9, 1 mg/mL; unit not given
[2] = read-out: Inhibition @ 1 μM m17β-HSD1

Compound | inhibition at […] (rat 17β-HSD1) | inhibition at 1 µM (mouse 17β-HSD1; read-out: % inhibition m17β-HSD1 @ 1 μM) | inhibition at 1 µM (mouse 17β-HSD1; [2]) | inhibition at 1 µM (mouse 17β-HSD2) | half-life at 1 µM (in vitro) | IC50 (human 17β-HSD2) | IC50 (human 17β-HSD1) | CLint [1] | IC50 (mouse 17β-HSD2; mouse liver microsomal fraction, E2 10 nM, NAD+) | IC50 (mouse 17β-HSD2) | IC50 (mouse 17β-HSD1) | inhibition at 0.05 µM (mouse 17β-HSD2) | inhibition at 0.01 µM (human 17β-HSD2) | inhibition at 0.01 µM (human 17β-HSD1)
Nc1cccc(-c2ccc(C(=O)c3c(F)ccc(O)c3F)s2)c1 [Compound 1, [5-(3-Aminophenyl)thiophen-2-yl](2,6-difluoro-3-hydroxyphenyl)methanone] | 51% | 30% | 30% |  |  |  |  |  |  |  |  |  |  | 
O=C(c1ccc(-c2cccc(Cl)c2)s1)c1c(F)ccc(O)c1F [Compound 11, [5-(3-Chloro-phenyl)-thiophen-2-yl]-(2,6-difluoro-3-hydroxy-phenyl)-methanone] |  |  | 60% | 75% | 4.3 min | 10 nM | 1.2 nM | 160.7 |  |  |  |  |  | 
COc1ccc(-c2ccc(C(=O)c3c(F)ccc(O)c3F)s2)cc1Cl [Compound 12, [5-(3-Chloro-4-methoxy-phenyl)-thiophen-2-yl]-(2,6-difluoro-3-hydroxy-phenyl)-methanone] |  |  | 40% | 64% | 4.6 min | 11 nM | 1.3 nM | 149.6 |  |  |  |  |  | 
COc1c(Cl)cc(-c2ccc(C(=O)c3c(F)ccc(O)c3F)s2)cc1Cl [Compound 15, [5-(3,5-Dichloro-4-methoxy-phenyl)-thiophen-2-yl]-(2,6-difluoro-3-hydroxy-phen-yl)-methanone] |  |  | 43% |  | 18.1 min | 41 nM | 0.6 nM | 38.3 | 550 nM |  |  |  |  | 
Cc1cc(C(=O)c2c(F)ccc(O)c2F)sc1-c1ccc(O)c(Cl)c1 [Compound 21, [5-(3-Chloro-4-hydroxy-phenyl)-4-methyl-thiophen-2-yl]-(2,6-difluoro-3-hydroxy-phenyl)-methanone] |  |  | 38% |  | 2.9 min | 11 nM | 0.8 nM | 241.4 |  | 78 nM |  |  |  | 
N#Cc1cc(-c2ccc(C(=O)c3c(F)ccc(O)c3F)s2)ccc1O [Compound 25, 5-[5-(2,6-Difluoro-3-hydroxy-benzoyl)-thiophen-2-yl]-2-hydroxy-benzonitrile] |  |  | 23% | 40% | 10.7 min | 29 nM | 3.3 nM | 64.5 |  |  |  |  |  | 
COc1c(Cl)cc(-c2ccc(C(=O)c3c(F)ccc(O)c3F)s2)cc1Cn1ccnn1 [Compound 31, [5-(3-Chloro-4-methoxy-5-[1,2,3]triazol-1-ylmethyl-phenyl)-thiophen-2-yl]-(2,6-difluoro-3-hydroxy-phenyl)-methanone] | 39% |  | 32% | 84% |  | 9 nM | 2.1 nM |  |  |  |  |  |  | 
O=C(c1ccc(-c2ccc(O)c(Cl)c2)s1)c1cc(F)c(F)c(O)c1F [Compound 41, (5-(3-Chloro-4-hydroxyphenyl)thiophen-2-yl)(2,4,5-trifluoro-3-hydroxyphenyl)methanone] |  |  | 33% | 89% | 11.3 min | 3.1 nM | 1.1 nM | 61.5 |  |  |  |  |  | 
COc1c(Cl)cc(-c2ccc(C(=O)c3cc(F)c(F)c(O)c3F)s2)cc1Cl [Compound 45, (5-(3,5-Dichloro-4-methoxyphenyl)thiophen-2-yl)(2,4,5-trifluoro-3-hydroxyphenyl)methanone] |  |  |  |  | 15 min | 2.6 nM | 0.6 nM |  |  | 89 nM | 1730 nM |  |  | 
Cn1cnc(S(=O)(=O)Nc2cccc(-c3ccc(C(=O)c4cc(F)c(F)c(O)c4F)s3)c2)c1 [Compound 48, 1-Methyl-N-(3-(5-(2,4,5-trifluoro-3-hydroxybenzoyl)thiophen-2-yl)phenyl)-1H-imidazole-4-sulfonamide] |  |  | 12.1% |  | 24.9 min |  | 21 nM | 27.9 |  | 155 nM |  |  |  | 
Cc1cc(-c2ccc(C(=O)c3cc(F)c(F)c(O)c3F)s2)cc(C)c1O [Compound 50, (5-(4-Hydroxy-3,5-dimethylphenyl)thiophen-2-yl)(2,4,5-trifluoro-3-hydroxyphenyl)methanone] |  |  |  |  | 38 min | 1.3 nM | 0.9 nM | 18.2 |  | 100 nM | 650 nM |  |  | 
Cc1c(N)cccc1-c1ccc(C(=O)c2cc(F)c(F)c(O)c2F)s1 [Compound 58, (5-(3-Amino-2-methylphenyl)thiophen-2-yl)(2,4,5-trifluoro-3-hydroxyphenyl)methanone] |  |  |  |  | 20.8 min |  |  | 33.3 |  |  |  | 40% | 61% | 1.1%
O=C(c1ccc(-c2cccc3[nH]ccc23)s1)c1cc(F)c(F)c(O)c1F [Compound 62, (5-(1H-Indol-4-yl)thiophen-2-yl)(2,4,5-trifluoro-3-hydroxyphenyl)methanone] |  |  |  |  | 48.9 min |  |  | 14.2 |  |  |  | 46% | 100% | 93%
CS(=O)(=O)Nc1cccc(-c2ccc(C(=O)c3cc(F)c(F)c(O)c3F)s2)c1 [Compound 63, N-(3-(5-(2,4,5-trifluoro-3-hydroxybenzoyl)thiophen-2-yl)phenyl)methanesulfonamide] |  |  |  |  | 25 min |  |  | 27.7 |  |  |  | 38% | 77% | 53%
O=C(c1ccc(-c2ccc(O)cc2)s1)c1cc(F)c(F)c(O)c1F [Compound 68, (5-(4-Hydroxyphenyl)thiophen-2-yl)(2,4,5-trifluoro-3-hydroxyphenyl)methanone] |  |  |  |  | 27.4 min |  |  | 25.3 |  |  |  | 42% | 96% | 66%
Cc1cc(-c2ccc(C(=O)c3cccc(O)c3Cl)s2)cc(C)c1O [Compound 79, (2-Chloro-3-hydroxyphenyl)(5-(4-hydroxy-3,5-dimethylphenyl)thiophen-2-yl)methanone] |  |  |  |  | 22 min |  |  | 31.6 |  |  |  | 70% | 64% | 31%
